One compound from BindingDB's records for doi:10.1021/acs.jnatprod.8b00318 (Indian Institute of Integrative Medicine (Csir), 2019) can be followed below.

What is called IC50 is the concentration that gives 50% inhibition.

Structures are written as SMILES.

Experiment [1] concerns the target Prostaglandin G/H synthase 1 (Ovis aries) (UniProt P05979). Put plainly: Inhibition of ovine COX1 assessed as reduction in prostaglandin E2 production incubated for 10 mins before arachidonic acid addition and measured after 25 mins by LC-MS/MS analysis.
Experiment [2] concerns the target Prostaglandin G/H synthase 2 (Homo sapiens) (UniProt P35354). Briefly: Inhibition of COX2 (unknown origin) assessed as reduction in prostaglandin E2 production incubated for 10 mins before arachidonic acid addition and measured after 25 mins by LC-MS/MS analysis.

Prostaglandin G/H synthase 2 (Homo sapiens), sequence (P35354 whole entry, looked up): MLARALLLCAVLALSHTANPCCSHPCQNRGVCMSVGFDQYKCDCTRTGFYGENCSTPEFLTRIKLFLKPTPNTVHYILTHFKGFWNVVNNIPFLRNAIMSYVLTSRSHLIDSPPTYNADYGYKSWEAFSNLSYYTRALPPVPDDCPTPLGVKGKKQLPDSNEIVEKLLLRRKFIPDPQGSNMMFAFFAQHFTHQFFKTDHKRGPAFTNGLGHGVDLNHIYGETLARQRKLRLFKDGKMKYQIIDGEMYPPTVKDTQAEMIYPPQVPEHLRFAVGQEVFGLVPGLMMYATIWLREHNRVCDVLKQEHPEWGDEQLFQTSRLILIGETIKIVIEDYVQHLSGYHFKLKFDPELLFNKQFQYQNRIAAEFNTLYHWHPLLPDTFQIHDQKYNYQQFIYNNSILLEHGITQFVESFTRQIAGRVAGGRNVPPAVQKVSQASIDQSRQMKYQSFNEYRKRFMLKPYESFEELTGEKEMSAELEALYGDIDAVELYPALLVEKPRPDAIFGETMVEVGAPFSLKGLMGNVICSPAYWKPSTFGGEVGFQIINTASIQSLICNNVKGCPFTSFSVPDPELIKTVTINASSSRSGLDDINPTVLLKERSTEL

`COC(=O)[C@@H](C)c1ccc2c(C)cc(O)c(C)c2c1`: the 50% inhibitory concentration (IC50) turned out to be 31 µM in experiment [1] and 66.1 µM in experiment [2].
